In US20090030065A1, “Use of Pde1c and Inhibitors Thereof” (NYCOMED GmbH, priority 2005, published 2009):

Experiments:
Format in all cases: biochemical
PDE3 = test: PDE isoenzyme activities in cellular lysates: PDE3; settings: 10 μM, 0.5 μM cyclic AMP
Procedure: (§1) Cells (1-3×10^6) were washed twice in phosphate buffered saline (4° C.) and resuspended in 1 ml homogenization buffer (137 mM NaCl, 2.7 mM KCl, 8.1 mM Na2HPO4, 1.5 mM KH2PO4, 10 mM HEPES, 1 mM EGTA, 1 mM MgCl2, 1 mM-mercaptoethanol, […], […], 50 mM phenylmethylsulfonyl fluoride, 10 mM soybean trypsin inhibitor, 2 mM benzamidine, pH 8.2). Cells were disrupted by sonication (Branson sonifier, 3×15 s) and lysates were immediately used for phosphodiesterase (PDE) activity measurements. PDE activities were assessed in cellular lysates as described (Thompson & Appleman, 1979) with some modifications (Bauer & Schwabe, 1980). The assay mixture (final volume […]) contained (mM): Tris HCl 30; pH 7.4, MgCl2 5, 0.5 μM either cyclic AMP or cyclic GMP as substrate including [^3H]cAMP or [^3H]cGMP (about 30 000 c.p.m. per well), […], PDE isoenzyme-specific activators and inhibitors as described below and cellular lysates. Incubations were performed for 60 min at 37° C. and reactions were terminated by adding […] 0.2 M HCl per well. Assays were left on ice for 10 min and then […] 5′-nucleotidase (Crotalus atrox) was added. […] Columns were eluted with 2 ml 30 mM ammonium formiate (pH 6.0) and radioactivity in the eluate was counted. […] Briefly, PDE4 was calculated as the difference of PDE activities at 0.5 μM cyclic AMP in the presence and absence of 1 μM Piclamilast. […]

[1] = target: human recombinant PDE11A4 (Homo sapiens, UniProt Q9HCR9); test: Inhibition of recombinant PDE activity, SPA test: PDE11A4; settings: human recombinant enzyme; read-out: IC50 on PDE 11A4
human recombinant PDE11A4, sequence (Q9HCR9 whole entry): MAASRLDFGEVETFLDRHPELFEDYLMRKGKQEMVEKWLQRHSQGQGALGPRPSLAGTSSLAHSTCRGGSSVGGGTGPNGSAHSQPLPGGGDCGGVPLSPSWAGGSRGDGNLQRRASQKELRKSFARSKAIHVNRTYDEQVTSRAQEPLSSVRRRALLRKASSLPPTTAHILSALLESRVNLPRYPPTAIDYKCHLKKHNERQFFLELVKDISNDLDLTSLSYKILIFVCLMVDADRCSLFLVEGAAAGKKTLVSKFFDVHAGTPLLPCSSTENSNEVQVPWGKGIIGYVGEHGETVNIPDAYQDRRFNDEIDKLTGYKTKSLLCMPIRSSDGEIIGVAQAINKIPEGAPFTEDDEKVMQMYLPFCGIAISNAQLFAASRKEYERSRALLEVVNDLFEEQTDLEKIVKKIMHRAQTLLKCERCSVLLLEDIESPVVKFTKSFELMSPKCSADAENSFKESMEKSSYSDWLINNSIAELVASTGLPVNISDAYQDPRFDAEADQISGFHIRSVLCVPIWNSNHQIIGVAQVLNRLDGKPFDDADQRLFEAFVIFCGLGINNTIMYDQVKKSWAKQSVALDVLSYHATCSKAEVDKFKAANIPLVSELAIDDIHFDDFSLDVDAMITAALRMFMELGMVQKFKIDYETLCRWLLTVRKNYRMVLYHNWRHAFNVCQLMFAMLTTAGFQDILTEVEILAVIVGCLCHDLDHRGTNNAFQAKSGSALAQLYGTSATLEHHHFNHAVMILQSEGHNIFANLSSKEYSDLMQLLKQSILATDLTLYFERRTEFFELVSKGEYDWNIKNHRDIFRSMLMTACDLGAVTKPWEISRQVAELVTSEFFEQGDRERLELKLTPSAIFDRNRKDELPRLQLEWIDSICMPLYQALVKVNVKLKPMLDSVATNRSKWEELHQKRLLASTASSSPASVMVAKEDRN
Procedure: (§2) Measurement of the Inhibition of Phosphodiesterase Activity Phosphodiesterase activity is measured in a modified SPA (scintillation proximity assay) test, supplied by Amersham Biosciences (see procedural instructions “phosphodiesterase [3H]cAMP SPA enzyme assay, code TRKQ 7090”), carried out in 96-well microtitre plates (MTP's): The test volume is 100 μl and contains 20 mM Tris buffer (pH 7.4), 0.1 mg of BSA (bovine serum albumin)/ml, 5 mM Mg^2+, 0.5 μM cGMP or cAMP (including about 50,000 cpm of [3H]cGMP or [3H]cAMP as a tracer; whether to use cAMP or cGMP depends on the substrate-specificity of the phosphodiesterase measured), 1 μl of the respective substance dilution in DMSO and sufficient recombinant PDE to ensure that 10-20% of the cGMP or cAMP is converted under the said experimental conditions. […] After a preincubation of 5 min at 37° C., the reaction is started by adding the substrate (cGMP) and the assay is incubated for a further 15 min; after that, it is stopped by adding SPA beads (50 μl). […] After the beads have been sedimented (>30 min), the MTP's are analyzed in commercially available luminescence detection devices. The corresponding IC50 values of the compounds for the inhibition of PDE activity are determined from the concentration-effect curves by means of non-linear regression.
(§3) Compound A and B are analyzed for inhibition of PDE family members as described.

human recombinant PDE4B2 = human recombinant PDE4B2 (Homo sapiens, UniProt Q07343); test: Inhibition of recombinant PDE activity, SPA test: PDE4B2; settings: human recombinant enzyme; read-out: IC50 on PDE 4B2
human recombinant PDE4B2, sequence (Q07343 1-564 isoform Q07343-2): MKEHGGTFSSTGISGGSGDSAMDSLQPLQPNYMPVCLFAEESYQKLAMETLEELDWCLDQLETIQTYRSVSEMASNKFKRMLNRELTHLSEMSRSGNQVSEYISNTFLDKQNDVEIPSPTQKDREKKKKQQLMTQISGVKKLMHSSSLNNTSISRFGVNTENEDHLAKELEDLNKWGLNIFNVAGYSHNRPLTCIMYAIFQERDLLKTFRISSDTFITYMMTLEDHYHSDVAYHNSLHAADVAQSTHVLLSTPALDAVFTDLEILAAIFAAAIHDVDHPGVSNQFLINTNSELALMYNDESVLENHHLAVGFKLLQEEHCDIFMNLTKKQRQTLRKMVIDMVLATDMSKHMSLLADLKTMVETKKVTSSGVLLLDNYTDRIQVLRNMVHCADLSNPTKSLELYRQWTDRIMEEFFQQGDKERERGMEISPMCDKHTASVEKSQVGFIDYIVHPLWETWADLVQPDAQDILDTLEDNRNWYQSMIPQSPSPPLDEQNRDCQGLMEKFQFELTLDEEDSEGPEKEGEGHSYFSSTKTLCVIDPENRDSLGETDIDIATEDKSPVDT
Procedure: as §2, §3

human recombinant PDE3A1 = human recombinant PDE3A1 (Homo sapiens, UniProt Q14432); test: Inhibition of recombinant PDE activity, SPA test: PDE3A1; settings: human recombinant enzyme; read-out: IC50 on PDE 3A1
human recombinant PDE3A1, sequence (Q14432 whole entry): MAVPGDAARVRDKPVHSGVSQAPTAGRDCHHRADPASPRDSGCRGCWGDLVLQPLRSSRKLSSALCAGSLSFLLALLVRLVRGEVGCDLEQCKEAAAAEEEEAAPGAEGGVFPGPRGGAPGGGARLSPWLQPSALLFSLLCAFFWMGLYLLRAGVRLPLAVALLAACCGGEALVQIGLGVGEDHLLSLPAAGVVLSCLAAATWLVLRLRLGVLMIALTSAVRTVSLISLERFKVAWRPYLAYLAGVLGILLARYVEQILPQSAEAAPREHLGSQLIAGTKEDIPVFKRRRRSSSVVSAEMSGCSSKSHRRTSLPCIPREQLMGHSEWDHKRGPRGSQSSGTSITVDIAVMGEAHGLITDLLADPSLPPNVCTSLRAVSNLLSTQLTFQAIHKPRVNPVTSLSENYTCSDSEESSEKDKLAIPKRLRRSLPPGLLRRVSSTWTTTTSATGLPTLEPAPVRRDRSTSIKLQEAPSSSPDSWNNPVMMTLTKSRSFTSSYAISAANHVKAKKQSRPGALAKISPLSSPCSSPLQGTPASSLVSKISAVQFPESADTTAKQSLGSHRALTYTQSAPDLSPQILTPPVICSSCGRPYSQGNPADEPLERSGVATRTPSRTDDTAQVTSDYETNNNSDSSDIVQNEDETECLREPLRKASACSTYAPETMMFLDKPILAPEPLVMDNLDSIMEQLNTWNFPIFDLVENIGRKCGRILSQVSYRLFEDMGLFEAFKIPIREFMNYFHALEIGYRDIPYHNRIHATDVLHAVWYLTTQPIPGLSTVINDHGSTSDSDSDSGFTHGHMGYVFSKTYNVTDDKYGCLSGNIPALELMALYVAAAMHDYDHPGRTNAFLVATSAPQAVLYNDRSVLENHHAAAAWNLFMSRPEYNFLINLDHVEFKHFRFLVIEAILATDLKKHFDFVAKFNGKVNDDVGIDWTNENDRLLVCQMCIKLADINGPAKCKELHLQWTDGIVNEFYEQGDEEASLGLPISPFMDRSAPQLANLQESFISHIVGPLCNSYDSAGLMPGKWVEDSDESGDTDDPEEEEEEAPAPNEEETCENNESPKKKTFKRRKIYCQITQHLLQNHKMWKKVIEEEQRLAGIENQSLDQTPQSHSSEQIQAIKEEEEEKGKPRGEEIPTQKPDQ
Procedure: as §2, §3

human recombinant PDE1C1 = human recombinant PDE1C1 (Homo sapiens, UniProt Q14123); test: Inhibition of recombinant PDE activity, SPA test: PDE1C1; settings: for IC50: human recombinant enzyme, read-out: IC50 on PDE 1C1; for Selectivity for PDE1C1 versus other PDE family members tested: see Tab. 1
human recombinant PDE1C1, sequence (Q14123 1-634 isoform Q14123-2): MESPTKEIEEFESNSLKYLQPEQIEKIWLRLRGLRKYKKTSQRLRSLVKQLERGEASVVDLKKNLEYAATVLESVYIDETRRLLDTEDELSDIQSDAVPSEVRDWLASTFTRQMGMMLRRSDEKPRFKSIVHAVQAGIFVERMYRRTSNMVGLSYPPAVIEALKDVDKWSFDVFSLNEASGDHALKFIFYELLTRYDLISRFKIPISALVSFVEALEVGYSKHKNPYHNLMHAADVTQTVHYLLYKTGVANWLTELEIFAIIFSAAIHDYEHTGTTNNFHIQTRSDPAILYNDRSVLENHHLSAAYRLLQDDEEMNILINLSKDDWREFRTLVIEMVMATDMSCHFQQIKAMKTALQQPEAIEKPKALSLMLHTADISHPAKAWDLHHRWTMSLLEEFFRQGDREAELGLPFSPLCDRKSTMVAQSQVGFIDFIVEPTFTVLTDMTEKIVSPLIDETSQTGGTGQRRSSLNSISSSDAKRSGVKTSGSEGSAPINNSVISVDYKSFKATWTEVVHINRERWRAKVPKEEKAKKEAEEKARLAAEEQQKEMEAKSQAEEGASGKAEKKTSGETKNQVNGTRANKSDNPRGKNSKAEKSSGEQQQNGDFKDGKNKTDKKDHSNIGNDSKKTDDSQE
Procedure: Measurement of the Inhibition of Phosphodiesterase Activity Phosphodiesterase activity is measured in a modified SPA (scintillation proximity assay) test, supplied by Amersham Biosciences (see procedural instructions “phosphodiesterase [3H]cAMP SPA enzyme assay, code TRKQ 7090”), carried out in 96-well microtitre plates (MTP's): The test volume is 100 μl and contains 20 mM Tris buffer (pH 7.4), 0.1 mg of BSA (bovine serum albumin)/ml, 5 mM Mg^2+, 0.5 μM cGMP or cAMP (including about 50,000 cpm of [3H]cGMP or [3H]cAMP as a tracer; whether to use cAMP or cGMP depends on the substrate-specificity of the phosphodiesterase measured), 1 μl of the respective substance dilution in DMSO and sufficient recombinant PDE to ensure that 10-20% of the cGMP or cAMP is converted under the said experimental conditions. […] After a preincubation of 5 min at 37° C., the reaction is started by adding the substrate (cGMP) and the assay is incubated for a further 15 min; after that, it is stopped by adding SPA beads (50 μl). In accordance with the manufacturer's instructions, the SPA beads had previously been resuspended in water, but were then diluted 1:3 (v/v) in water; the diluted solution also contains 3 mM IBMX to ensure a complete PDE activity stop. After the beads have been sedimented (>30 min), the MTP's are analyzed in commercially available luminescence detection devices. The corresponding IC50 values of the compounds for the inhibition of PDE activity are determined from the concentration-effect curves by means of non-linear regression.
as §3

human recombinant PDE2A3 = human recombinant PDE2A3 (Homo sapiens, UniProt O00408); test: Inhibition of recombinant PDE activity, SPA test: PDE2A3; settings: human recombinant enzyme; read-out: IC50 on PDE 2A3
human recombinant PDE2A3, sequence (O00408 whole entry): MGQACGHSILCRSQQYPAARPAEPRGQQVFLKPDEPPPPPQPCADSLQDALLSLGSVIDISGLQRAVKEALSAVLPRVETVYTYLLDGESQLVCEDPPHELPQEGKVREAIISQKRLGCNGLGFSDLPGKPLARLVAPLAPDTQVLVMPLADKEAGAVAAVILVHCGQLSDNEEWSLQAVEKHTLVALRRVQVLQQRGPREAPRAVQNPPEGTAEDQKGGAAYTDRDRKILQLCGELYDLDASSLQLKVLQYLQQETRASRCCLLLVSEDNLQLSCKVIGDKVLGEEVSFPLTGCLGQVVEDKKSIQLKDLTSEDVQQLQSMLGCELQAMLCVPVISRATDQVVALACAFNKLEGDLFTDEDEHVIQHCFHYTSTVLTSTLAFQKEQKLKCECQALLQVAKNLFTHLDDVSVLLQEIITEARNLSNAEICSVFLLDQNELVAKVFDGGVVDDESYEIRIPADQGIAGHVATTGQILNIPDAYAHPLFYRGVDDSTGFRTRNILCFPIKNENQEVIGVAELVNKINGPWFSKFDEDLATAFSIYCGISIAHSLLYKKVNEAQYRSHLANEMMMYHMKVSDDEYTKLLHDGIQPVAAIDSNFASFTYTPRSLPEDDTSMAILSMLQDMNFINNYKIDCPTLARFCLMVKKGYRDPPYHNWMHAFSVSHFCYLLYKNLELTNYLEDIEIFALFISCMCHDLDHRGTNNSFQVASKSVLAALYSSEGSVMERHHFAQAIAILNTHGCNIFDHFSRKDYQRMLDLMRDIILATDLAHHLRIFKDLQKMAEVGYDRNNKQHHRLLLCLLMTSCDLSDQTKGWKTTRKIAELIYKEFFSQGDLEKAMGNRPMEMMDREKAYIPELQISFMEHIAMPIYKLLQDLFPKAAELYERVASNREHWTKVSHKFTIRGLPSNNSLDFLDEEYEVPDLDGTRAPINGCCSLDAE
Procedure: as §2, §3

human recombinant PDE10A = human recombinant PDE10A (Homo sapiens, UniProt Q9Y233); test: Inhibition of recombinant PDE activity, SPA test: PDE10A; settings: human recombinant enzyme; read-out: IC50 on PDE 10A
human recombinant PDE10A, sequence (Q9Y233 290-1055 limits assumed): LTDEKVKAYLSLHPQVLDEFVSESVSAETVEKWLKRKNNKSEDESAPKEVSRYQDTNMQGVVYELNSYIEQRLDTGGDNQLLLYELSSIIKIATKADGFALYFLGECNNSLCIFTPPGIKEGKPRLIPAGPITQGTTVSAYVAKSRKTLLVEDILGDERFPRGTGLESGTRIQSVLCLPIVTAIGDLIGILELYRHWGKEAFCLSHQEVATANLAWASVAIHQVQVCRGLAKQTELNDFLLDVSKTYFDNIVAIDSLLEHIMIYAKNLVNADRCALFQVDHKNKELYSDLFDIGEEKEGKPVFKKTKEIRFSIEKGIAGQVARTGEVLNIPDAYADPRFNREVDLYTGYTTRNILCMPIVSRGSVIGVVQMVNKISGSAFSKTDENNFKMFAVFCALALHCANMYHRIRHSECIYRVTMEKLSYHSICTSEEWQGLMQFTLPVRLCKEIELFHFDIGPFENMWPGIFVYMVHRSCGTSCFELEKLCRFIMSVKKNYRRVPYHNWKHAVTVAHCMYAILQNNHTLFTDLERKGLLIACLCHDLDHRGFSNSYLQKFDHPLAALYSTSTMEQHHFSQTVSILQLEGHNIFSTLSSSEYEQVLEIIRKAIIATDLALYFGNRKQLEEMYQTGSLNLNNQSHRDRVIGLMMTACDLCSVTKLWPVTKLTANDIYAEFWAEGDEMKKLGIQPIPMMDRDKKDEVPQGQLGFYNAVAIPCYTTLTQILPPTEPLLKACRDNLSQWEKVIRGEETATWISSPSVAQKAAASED
Procedure: as §2, §3

human recombinant PDE5A1 = human recombinant PDE5A1 (Homo sapiens, UniProt O76074); test: Inhibition of recombinant PDE activity, SPA test: PDE5A1; settings: human recombinant enzyme; read-out: IC50 on PDE 5A1
Procedure: as §2, §3

PDE2 = target: T1, PDE2 (Homo sapiens, UniProt O00408); test: PDE isoenzyme activities in cellular lysates: PDE2; settings: 100 nM
T1 construct: endogenous in cells
T1 sequence (O00408 whole entry): as the sequence (O00408 whole entry) above
Procedure: as §1

PDE4 = test: PDE isoenzyme activities in cellular lysates: PDE4; settings: 1 μM, 0.5 μM cyclic AMP
Procedure: as §1

PDE5 = target: T2, PDE5 (Homo sapiens, UniProt O76074); test: PDE isoenzyme activities in cellular lysates: PDE5; settings: 100 nM, 0.5 μM cyclic GMP
T2 construct: PDE activities were assessed in cellular lysates; endogenous in cells
Procedure: Cells (1-3×10^6) were washed twice in phosphate buffered saline (4° C.) and resuspended in 1 ml homogenization buffer (137 mM NaCl, 2.7 mM KCl, 8.1 mM Na2HPO4, 1.5 mM KH2PO4, 10 mM HEPES, 1 mM EGTA, 1 mM MgCl2, 1 mM-mercaptoethanol, 5 mM pepstatin A, 10 mM leupeptin, 50 mM phenylmethylsulfonyl fluoride, 10 mM soybean trypsin inhibitor, 2 mM benzamidine, pH 8.2). Cells were disrupted by sonication (Branson sonifier, 3×15 s) and lysates were immediately used for phosphodiesterase (PDE) activity measurements. PDE activities were assessed in cellular lysates as described (Thompson & Appleman, 1979) with some modifications (Bauer & Schwabe, 1980). The assay mixture (final volume 200 ml) contained (mM): Tris HCl 30; pH 7.4, MgCl2 5, 0.5 μM either cyclic AMP or cyclic GMP as substrate including [^3H]cAMP or [^3H]cGMP (about 30 000 c.p.m. per well), 100 mM EGTA, PDE isoenzyme-specific activators and inhibitors as described below and cellular lysates. Incubations were performed for 60 min at 37° C. and reactions were terminated by adding 50 ml 0.2 M HCl per well. Assays were left on ice for 10 min and then 25 mg 5′-nucleotidase (Crotalus atrox) was added. Following an incubation for 10 min at 37° C. assay mixtures were loaded onto QAE-Sephadex A25 columns (1 ml bed volume). Columns were eluted with 2 ml 30 mM ammonium formiate (pH 6.0) and radioactivity in the eluate was counted. […]

| IC50 [1] | IC50 (human recombinant PDE4B2) | IC50 (human recombinant PDE3A1) | IC50 value on human recombinant PDE1C1, in words (human recombinant PDE1C1) | IC50 (human recombinant PDE1C1) | IC50 (human recombinant PDE2A3) | IC50 (human recombinant PDE10A) | IC50 (human recombinant PDE5A1) | Compound | Selectivity for PDE1C1 versus other PDE family members tested (human recombinant PDE1C1) | further results |
| --- | --- | --- | --- | --- | --- | --- | --- | --- | --- | --- |
| – | – | – | – | – | – | – | – | CC1CC(=O)NN=C1c1cc(-n2ccnc2)cs1 (stereo not shown) [Motapizone] | – | Block of PDE3 activity (PDE3): completely blocked |
| 22 µM | 9.3 µM | > 100 µM | in the nanomolar range | 0.1 µM | 13 µM | 77 µM | 16 µM | Cc1ccc(/C(O)=C2/C(=O)C(=O)N(c3ccccc3)C2=S)cc1 [Compound B, 4-[Hydroxy(4-methylphenyl)methylidene]-1-phenyl-5-thioxopyrrolidine-2,3-dione] | selective versus other PDE family members tested | – |
| – | – | – | – | – | – | – | – | COc1ccc(Cc2nc3c(ncn3C(CCCc3ccccc3)C(C)=O)c(=O)[nH]2)cc1OC (stereo not shown) [PDP] | – | Inhibition of cyclic GMP-induced cyclic AMP degrading activity increment (PDE2) (PDE2): completely inhibited |
| – | – | – | – | – | – | – | – | COc1ccc(C(=O)Nc2c(Cl)cncc2Cl)cc1OC1CCCC1 [Piclamilast] | – | Block of PDE4 activity (PDE4): completely blocked |
| – | – | – | – | – | – | – | – | CCCc1nn(C)c2c(=O)[nH]c(-c3cc(S(=O)(=O)N4CCN(C)CC4)ccc3OCC)nc12 [Sildenafil] | – | Block of PDE5 activity (PDE5): completely blocked |
| > 100 µM | > 100 µM | > 100 µM | in the nanomolar range | 0.083 µM | > 100 µM | > 100 µM | > 100 µM | CC(C)(C)CC(C)(C)c1ccc(OCC(=O)N/N=C/c2ccc(-c3cccc(C(=O)O)c3)o2)c([N+](=O)[O-])c1 [Compound A] | selective versus other PDE family members tested | – |
